From the NIST ThermoML archive (doi:10.1016/j.jct.2016.04.003)

Assay: xn = mol fraction of the nth substance listed
Settings: for surface tension liquid-gas: Drop volume; for viscosity / speed of sound / mass density: 99 kPa, Liquid; for viscosity: Capillary tube (Ostwald / Ubbelohde) method; for speed of sound: Frequency=3 MHz, Sing-around technique in a fixed-path interferometer; for mass density: Vibrating tube method

CCCC[n+]1ccccc1.F[B-](F)(F)F [1-butylpyridinium tetrafluoroborate] + O
Settings | mass density [kg/m3] | speed of sound [m/s] | surface tension liquid-gas [mN/m] | viscosity [mPa·s]
313.15 K, x1 = 0.0115 | – | – | 55.5 | –
313.15 K, x1 = 0.0165 | 1021.2 | 1560 | – | –
313.15 K, x1 = 0.0185 | – | – | 53 | –
313.15 K, x1 = 0.0271 | – | – | 51.6 | –
313.15 K, x1 = 0.0372 | – | – | 50.3 | –
313.15 K, x1 = 0.0379 | 1049.2 | 1576.8 | – | –
313.15 K, x1 = 0.0456 | – | – | 49.9 | –
313.15 K, x1 = 0.047 | – | – | – | 0.845
313.15 K, x1 = 0.0863 | 1089.2 | 1590.3 | – | –
313.15 K, x1 = 0.0942 | – | – | 48.5 | –
313.15 K, x1 = 0.095 | – | – | – | 1.16
313.15 K, x1 = 0.101 | 1097.8 | 1591.9 | – | –
313.15 K, x1 = 0.134 | 1113.3 | 1593.4 | – | –
313.15 K, x1 = 0.1907 | – | – | 47.9 | –
313.15 K, x1 = 0.2001 | – | – | – | 1.741
313.15 K, x1 = 0.243 | 1144.4 | 1590.6 | – | –
313.15 K, x1 = 0.2846 | – | – | 47.7 | –
313.15 K, x1 = 0.289 | 1152.9 | 1587.9 | – | –
313.15 K, x1 = 0.2912 | – | – | – | 2.929
313.15 K, x1 = 0.34 | – | – | 47.6 | –
313.15 K, x1 = 0.3456 | 1161.3 | 1585 | – | –
313.15 K, x1 = 0.3866 | – | – | 47.6 | –
313.15 K, x1 = 0.4015 | – | – | – | 5.101
313.15 K, x1 = 0.4217 | 1170.1 | 1580.8 | – | –
313.15 K, x1 = 0.4807 | – | – | – | 8.106
313.15 K, x1 = 0.486 | – | – | 47 | –
313.15 K, x1 = 0.5485 | 1180.9 | 1575.2 | – | –
313.15 K, x1 = 0.5777 | – | – | 46.6 | –
313.15 K, x1 = 0.5815 | – | – | – | 11.33
313.15 K, x1 = 0.6029 | 1184.6 | 1573.3 | – | –
313.15 K, x1 = 0.6641 | – | – | – | 15.02
313.15 K, x1 = 0.6943 | – | – | 46.2 | –
313.15 K, x1 = 0.7232 | 1191.6 | 1569.9 | – | –
313.15 K, x1 = 0.7779 | – | – | 45.9 | –
313.15 K, x1 = 0.7855 | – | – | – | 26.33
313.15 K, x1 = 0.8005 | 1195.3 | 1568.4 | – | –
313.15 K, x1 = 0.835 | – | – | 45.7 | –
313.15 K, x1 = 0.8575 | 1197.8 | 1567.3 | – | –
313.15 K, x1 = 0.8875 | – | – | – | 44.04
313.15 K, x1 = 0.925 | – | – | 45.7 | –
313.15 K, x1 = 0.9305 | – | – | – | 53.39
313.15 K, x1 = 0.9315 | 1200.9 | 1566.3 | – | –
313.15 K, x1 = 0.9705 | – | – | – | 63.74
313.15 K, x1 = 1 | 1203.7 | 1565.6 | 45.7 | 71.1
323.15 K, x1 = 0.0115 | – | – | 54.5 | –
323.15 K, x1 = 0.0165 | 1016.5 | 1561.9 | – | –
323.15 K, x1 = 0.0185 | – | – | 52 | –
323.15 K, x1 = 0.0271 | – | – | 50.5 | –
323.15 K, x1 = 0.0372 | – | – | 49.5 | –
323.15 K, x1 = 0.0379 | 1043.9 | 1571.9 | – | –
323.15 K, x1 = 0.0456 | – | – | 48.7 | –
323.15 K, x1 = 0.047 | – | – | – | 0.708
323.15 K, x1 = 0.0863 | 1083 | 1577.9 | – | –
323.15 K, x1 = 0.0942 | – | – | 47.7 | –
323.15 K, x1 = 0.095 | – | – | – | 0.867
323.15 K, x1 = 0.101 | 1091.5 | 1577.7 | – | –
323.15 K, x1 = 0.134 | 1106.6 | 1576.8 | – | –
323.15 K, x1 = 0.1907 | – | – | 47.1 | –
323.15 K, x1 = 0.2001 | – | – | – | 1.418
323.15 K, x1 = 0.243 | 1137.2 | 1569.9 | – | –
323.15 K, x1 = 0.2846 | – | – | 46.9 | –
323.15 K, x1 = 0.289 | 1145.6 | 1566.7 | – | –
323.15 K, x1 = 0.2912 | – | – | – | 2.295
323.15 K, x1 = 0.34 | – | – | 46.6 | –
323.15 K, x1 = 0.3456 | 1153.8 | 1562.9 | – | –
323.15 K, x1 = 0.3866 | – | – | 46.4 | –
323.15 K, x1 = 0.4015 | – | – | – | 3.991
323.15 K, x1 = 0.4217 | 1162.6 | 1558.9 | – | –
323.15 K, x1 = 0.4807 | – | – | – | 5.631
323.15 K, x1 = 0.486 | – | – | 46.1 | –
323.15 K, x1 = 0.5485 | 1173.4 | 1553.2 | – | –
323.15 K, x1 = 0.5777 | – | – | 45.8 | –
323.15 K, x1 = 0.5815 | – | – | – | 7.929
323.15 K, x1 = 0.6029 | 1177.2 | 1551.3 | – | –
323.15 K, x1 = 0.6641 | – | – | – | 10.77
323.15 K, x1 = 0.6943 | – | – | 45.6 | –
323.15 K, x1 = 0.7232 | 1184.2 | 1548 | – | –
323.15 K, x1 = 0.7779 | – | – | 45.3 | –
323.15 K, x1 = 0.7855 | – | – | – | 18.47
323.15 K, x1 = 0.8005 | 1188 | 1546.4 | – | –
323.15 K, x1 = 0.835 | – | – | 45.1 | –
323.15 K, x1 = 0.8575 | 1190.6 | 1545.2 | – | –
323.15 K, x1 = 0.8875 | – | – | – | 27.32
323.15 K, x1 = 0.925 | – | – | 45.1 | –
323.15 K, x1 = 0.9305 | – | – | – | 34.39
323.15 K, x1 = 0.9315 | 1193.8 | 1544.1 | – | –
323.15 K, x1 = 0.9705 | – | – | – | 40.41
323.15 K, x1 = 1 | 1196.7 | 1543.5 | 45.1 | 45.56
